Measurements: BindingDB's records for patent US20250296922 (Shanghai Wennai Therapeutics Co, 2025)
pIC50: −log10 of the molar value.

Assays:
Experiment in all cases: Human Liver Microsomal CYP Inhibition Test
Cytochrome P450 2D6 = Cytochrome P450 2D6 (Homo sapiens, UniProt P10635)
Protocol: (§1) 3.5.1 the working solution preparation of the compound to be tested and the positive control (100×);3.5.2 Taking the liver microsomes from the −80° C. cryogenic freezer and melting on ice;3.5.3 Adding 20 μL of substrate solution to the appropriate wells and 20 μL of potassium phosphate buffer to the blank wells;3.5.4 Adding 2 μL of different concentrations of target compounds (final concentrations from 0.05 μM to 50 μM, 7 concentrations in total) or standard inhibitors to each well, with 2 μL of methanol solution in the non-inhibitor and blank wells;3.5.5 Adding 1.012 mL of liver microsomes to 78.988 mL of potassium phosphate buffer, then adding 158 μL of liver microsomes solution to all wells; preheating the well plate for 10 minutes in a 37° C. water bath;3.5.6 Weighing 129.1 mg NADPH (purchased from SyncoZymes Co. Ltd.) and adding to 15.0 mL of 33 Mm MgCl2 solution to give a 10 mM concentration, adding 20 μL to each well;3.5.7 Mixing and incubating the well plate in a 37° C. water bath for 10 minutes, then adding 400 μL of cold termination solution at the appropriate time point;3.5.8 Centrifuging the sample at 4000 rpm for 20 minutes to precipitate the protein. Transferring 200 μL of supernatant to 100 μL of HPLC water and shaking for 10 minutes. The samples were analyzed by LC/MS/MS.

Cytochrome P450 2C19 = Cytochrome P450 2C19 (Homo sapiens, UniProt P33261)
Protocol: as §1

Cytochrome P450 2C9 = Cytochrome P450 2C9 (Homo sapiens, UniProt P11712)
Protocol: as §1

Cytochrome P450 1A2 = molecular target: T1, Cytochrome P450 1A2 (Homo sapiens, UniProt P05177)
T1 sequence (P05177 whole entry): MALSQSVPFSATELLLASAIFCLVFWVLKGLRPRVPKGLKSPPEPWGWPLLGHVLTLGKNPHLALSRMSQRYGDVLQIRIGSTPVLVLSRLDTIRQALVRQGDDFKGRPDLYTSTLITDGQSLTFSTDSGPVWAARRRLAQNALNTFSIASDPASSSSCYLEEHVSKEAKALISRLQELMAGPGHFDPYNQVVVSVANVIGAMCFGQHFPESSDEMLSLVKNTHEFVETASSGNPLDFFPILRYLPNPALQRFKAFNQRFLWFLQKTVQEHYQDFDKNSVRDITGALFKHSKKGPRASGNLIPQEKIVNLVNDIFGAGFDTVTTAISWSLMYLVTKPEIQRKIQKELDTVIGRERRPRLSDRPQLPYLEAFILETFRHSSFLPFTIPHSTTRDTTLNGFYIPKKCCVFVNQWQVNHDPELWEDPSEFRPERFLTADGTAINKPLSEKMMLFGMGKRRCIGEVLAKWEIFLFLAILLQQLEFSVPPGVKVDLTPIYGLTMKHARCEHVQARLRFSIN
Protocol: as §1

Sequence of Cytochrome P450 2D6 (P10635 whole entry): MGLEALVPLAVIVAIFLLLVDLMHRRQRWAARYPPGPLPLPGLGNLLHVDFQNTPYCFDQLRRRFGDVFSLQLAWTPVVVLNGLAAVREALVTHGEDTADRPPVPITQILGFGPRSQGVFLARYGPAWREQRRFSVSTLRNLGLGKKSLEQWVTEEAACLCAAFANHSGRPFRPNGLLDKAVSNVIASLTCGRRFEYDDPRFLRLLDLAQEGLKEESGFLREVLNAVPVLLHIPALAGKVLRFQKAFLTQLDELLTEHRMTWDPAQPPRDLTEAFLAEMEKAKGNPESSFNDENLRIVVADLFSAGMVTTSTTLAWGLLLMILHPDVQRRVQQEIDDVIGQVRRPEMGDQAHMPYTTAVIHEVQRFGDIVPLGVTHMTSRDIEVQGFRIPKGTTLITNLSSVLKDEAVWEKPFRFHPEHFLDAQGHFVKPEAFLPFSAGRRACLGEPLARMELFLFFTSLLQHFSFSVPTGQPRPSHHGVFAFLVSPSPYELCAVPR
Sequence of Cytochrome P450 2C9 (P11712 whole entry): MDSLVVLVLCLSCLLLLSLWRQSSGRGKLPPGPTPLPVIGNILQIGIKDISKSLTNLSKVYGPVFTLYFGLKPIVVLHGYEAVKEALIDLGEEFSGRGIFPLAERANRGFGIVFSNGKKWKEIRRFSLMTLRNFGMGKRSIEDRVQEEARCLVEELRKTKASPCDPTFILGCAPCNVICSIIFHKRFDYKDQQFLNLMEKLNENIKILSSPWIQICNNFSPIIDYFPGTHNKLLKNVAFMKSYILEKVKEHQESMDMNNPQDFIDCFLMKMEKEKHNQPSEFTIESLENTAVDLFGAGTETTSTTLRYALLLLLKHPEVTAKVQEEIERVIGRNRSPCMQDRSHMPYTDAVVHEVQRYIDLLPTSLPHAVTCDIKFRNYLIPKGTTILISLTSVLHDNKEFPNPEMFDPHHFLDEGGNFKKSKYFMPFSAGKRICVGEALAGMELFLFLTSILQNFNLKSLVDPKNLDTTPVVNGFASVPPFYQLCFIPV
Sequence of Cytochrome P450 2C19 (P33261 whole entry): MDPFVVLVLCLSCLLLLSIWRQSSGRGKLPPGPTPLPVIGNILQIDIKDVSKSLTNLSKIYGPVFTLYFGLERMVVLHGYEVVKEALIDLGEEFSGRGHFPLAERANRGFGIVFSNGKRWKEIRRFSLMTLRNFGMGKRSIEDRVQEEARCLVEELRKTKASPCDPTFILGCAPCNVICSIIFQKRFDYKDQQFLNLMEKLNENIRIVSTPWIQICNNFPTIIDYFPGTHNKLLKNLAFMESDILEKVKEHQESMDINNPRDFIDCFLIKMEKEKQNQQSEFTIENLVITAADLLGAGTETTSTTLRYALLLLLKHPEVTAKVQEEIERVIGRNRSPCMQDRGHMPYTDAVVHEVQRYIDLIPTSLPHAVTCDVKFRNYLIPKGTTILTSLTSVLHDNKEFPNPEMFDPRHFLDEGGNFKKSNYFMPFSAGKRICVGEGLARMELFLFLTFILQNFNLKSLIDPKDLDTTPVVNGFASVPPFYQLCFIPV

pIC50 (Cytochrome P450 2D6): < 4.30
pIC50 (Cytochrome P450 2C19): 5.67
pIC50 (Cytochrome P450 2C9): < 4.30
pIC50 (Cytochrome P450 1A2): < 4.30
Structure (SMILES): COc1c([C@H]2[C@H](C(=O)Nc3ccc[n+]([O-])c3)C[C@@](C)(C(F)(F)F)[C@H]2C)ccc(F)c1F [US20250296922, Compound 7]
